Source: ChEMBL document CHEMBL1201862, “PubChem BioAssay data set” (2004)
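Grown in 96-well plates, cells were treated for 48 hours with each compound at five concentrations. Insufficient inhibition: endpoint recorded as highest concentration tested. GI50 = concentration required for 50% inhibition of growth.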 Activity calls are given as the source filed them. Rule as the data show it: active = GI50 up to about 1.1 µM and inactive = higher.

Experiments:
Assay in all cases: DTP human tumour cell line panel, 48 h
786-0 = tested on: 786-0
A549 = tested on: A549
ACHN = tested on: ACHN
BT-549 = tested on: BT-549
CCRF-CEM = tested on: CCRF-CEM
COLO 205 = tested on: COLO 205
DU-145 = tested on: DU-145
EKVX = tested on: EKVX
HCC 2998 = tested on: HCC 2998
HCT-116 = tested on: HCT-116
HCT-15 = tested on: HCT-15
HL-60 = tested on: HL-60
HOP-62 = tested on: HOP-62
HOP-92 = tested on: HOP-92
HT-29 = tested on: HT-29
Hs-578T = tested on: Hs-578T
IGROV-1 = tested on: IGROV-1
K562 = tested on: K562
KM12 = tested on: KM12
LOX IMVI = tested on: LOX IMVI
M14 = tested on: M14
MCF7 = tested on: MCF7
MDA-MB-231 = tested on: MDA-MB-231
MDA-MB-435 = tested on: MDA-MB-435
MOLT-4 = tested on: MOLT-4
Malme-3M = tested on: Malme-3M
NCI-H226 = tested on: NCI-H226
NCI-H23 = tested on: NCI-H23
NCI-H460 = tested on: NCI-H460
NCI-H522 = tested on: NCI-H522
NCI/ADR-RES = tested on: NCI/ADR-RES
OVCAR-3 = tested on: OVCAR-3
OVCAR-4 = tested on: OVCAR-4
OVCAR-5 = tested on: OVCAR-5
OVCAR-8 = tested on: OVCAR-8
PC-3 = tested on: PC-3
RPMI-8226 = tested on: RPMI-8226
RXF 393 = tested on: RXF 393
SF-268 = tested on: SF-268
SF-295 = tested on: SF-295
SF-539 = tested on: SF-539
SK-MEL-28 = tested on: SK-MEL-28
SK-MEL-5 = tested on: SK-MEL-5
SK-OV-3 = tested on: SK-OV-3
SN12C = tested on: SN12C
SNB-19 = tested on: SNB-19
SNB-75 = tested on: SNB-75
SR = tested on: SR
SW-620 = tested on: SW-620
T47D = tested on: T47D
TK-10 = tested on: TK-10
U-251 = tested on: U-251
UACC-257 = tested on: UACC-257
UACC-62 = tested on: UACC-62
UO-31 = tested on: UO-31

For `O=C1NC(O)c2cc3ccccc3cc2O1` (stereo not given), the GI50 (786-0) was > 100 µM (inactive), the GI50 (A549) was > 100 µM (inactive) and the GI50 (ACHN) was > 100 µM (inactive). For the same molecule, the GI50 (BT-549) was 26.4 µM (inactive), the GI50 (CCRF-CEM) was 29.2 µM (inactive) and the GI50 (COLO 205) was > 100 µM (inactive). For the same molecule, the GI50 (DU-145) was > 100 µM (inactive), the GI50 (EKVX) was > 100 µM (inactive) and the GI50 (HCC 2998) was > 100 µM (inactive). The GI50 (HCT-116) was 20 µM (inactive), the GI50 (HCT-15) was 19.1 µM and the GI50 (HL-60) was 28.4 µM (inactive). For the same molecule, the GI50 (HOP-62) was > 100 µM (inactive), the GI50 (HOP-92) was 25.6 µM (inactive) and the GI50 (HT-29) was > 100 µM (inactive). For the same molecule, the GI50 (Hs-578T) was 37.1 µM (inactive), the GI50 (IGROV-1) was 69.5 µM (inactive) and the GI50 (K562) was 34.9 µM (inactive). The GI50 (KM12) was > 100 µM (inactive), the GI50 (LOX IMVI) was 46.6 µM (inactive) and the GI50 (M14) was 38.6 µM (inactive). The GI50 (MCF7) was 29.6 µM (inactive), the GI50 (MDA-MB-231) was 34.4 µM (inactive) and the GI50 (MDA-MB-435) was 51.8 µM (inactive). The GI50 (MOLT-4) was 30.5 µM (inactive), the GI50 (Malme-3M) was 59.7 µM (inactive) and the GI50 (NCI-H226) was > 100 µM (inactive). For the same molecule, the GI50 (NCI-H23) was 42.7 µM (inactive), the GI50 (NCI-H460) was > 100 µM (inactive) and the GI50 (NCI-H522) was > 100 µM (inactive). For the same molecule, the GI50 (NCI/ADR-RES) was 51.4 µM (inactive), the GI50 (OVCAR-3) was 26.4 µM (inactive) and the GI50 (OVCAR-4) was 76 µM (inactive). The GI50 (OVCAR-5) was > 100 µM (inactive), the GI50 (OVCAR-8) was 39.2 µM (inactive) and the GI50 (PC-3) was 31.1 µM (inactive). For the same molecule, the GI50 (RPMI-8226) was 38.5 µM (inactive), the GI50 (RXF 393) was > 100 µM (inactive) and the GI50 (SF-268) was 61.7 µM (inactive). The GI50 (SF-295) was > 100 µM (inactive), the GI50 (SF-539) was 28 µM (inactive) and the GI50 (SK-MEL-28) was 69.8 µM (inactive). For the same molecule, the GI50 (SK-MEL-5) was 56.5 µM (inactive), the GI50 (SK-OV-3) was > 100 µM (inactive) and the GI50 (SN12C) was 69 µM (inactive). For the same molecule, the GI50 (SNB-19) was 60 µM (inactive), the GI50 (SNB-75) was 79.6 µM (inactive) and the GI50 (SR) was 24.3 µM (inactive). The GI50 (SW-620) was 61.1 µM (inactive), the GI50 (T47D) was 25.5 µM (inactive) and the GI50 (TK-10) was > 100 µM (inactive). For the same molecule, the GI50 (U-251) was 26.5 µM (inactive), the GI50 (UACC-257) was 61.1 µM (inactive) and the GI50 (UACC-62) was 21.7 µM (inactive). For the same molecule, the GI50 (UO-31) was > 100 µM (inactive).
